Activity calls are given as the source filed them. No cut-off for these calls is given here.
Tests used:
Mus musculus [1] = test: Anti-hyperuricemic activity against hypoxanthine/potassium oxonate-induced Kunming mouse model assessed as reduction in serum uric acid level at 2 mg/kg, sc measured after 4 hrs (reference value: 1010.00 +/- 51.16 uM); format: functional
Mus musculus [2] = test: Anti-hyperuricemic activity against hypoxanthine/potassium oxonate-induced Kunming mouse model assessed as decrease in serum uric acid ratio at 2 mg/kg, sc measured after 4 hrs; format: functional; design: scale not given: the % may be the effect or the level left
[3] = target: T1, Solute carrier family 22 member 12 (Homo sapiens, UniProt Q96S37); test: Inhibition of human URAT1 mediated 14C-uric acid uptake expressed in HEK293 cells using 14C-uric acid as substrate incubated for 30 mins by liquid scintillation counting analysis; format: cell-based
T1 sequence (Q96S37 whole entry): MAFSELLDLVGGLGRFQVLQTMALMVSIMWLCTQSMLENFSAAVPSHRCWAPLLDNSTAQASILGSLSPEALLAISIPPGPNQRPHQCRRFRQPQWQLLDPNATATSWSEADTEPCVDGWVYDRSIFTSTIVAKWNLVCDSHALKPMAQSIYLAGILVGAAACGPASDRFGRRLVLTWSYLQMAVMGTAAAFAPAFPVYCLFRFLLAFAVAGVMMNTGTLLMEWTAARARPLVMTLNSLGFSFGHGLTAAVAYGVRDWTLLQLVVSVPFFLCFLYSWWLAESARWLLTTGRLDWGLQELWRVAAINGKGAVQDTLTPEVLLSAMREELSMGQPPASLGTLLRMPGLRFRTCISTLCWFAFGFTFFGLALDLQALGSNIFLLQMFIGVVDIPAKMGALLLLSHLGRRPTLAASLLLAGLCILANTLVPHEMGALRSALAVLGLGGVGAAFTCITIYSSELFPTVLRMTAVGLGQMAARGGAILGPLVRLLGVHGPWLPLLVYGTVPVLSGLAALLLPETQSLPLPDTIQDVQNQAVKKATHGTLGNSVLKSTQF

[4] = target: T2, Solute carrier family 2, facilitated glucose transporter member 9 (Homo sapiens, UniProt Q9NRM0); test: Inhibition of GLUT9 (unknown origin) transfected in HEK293 cells assessed as inhibition of uric acid-induced current by whole cell patch clamp analysis; format: cell-based
T2 sequence (Q9NRM0 whole entry): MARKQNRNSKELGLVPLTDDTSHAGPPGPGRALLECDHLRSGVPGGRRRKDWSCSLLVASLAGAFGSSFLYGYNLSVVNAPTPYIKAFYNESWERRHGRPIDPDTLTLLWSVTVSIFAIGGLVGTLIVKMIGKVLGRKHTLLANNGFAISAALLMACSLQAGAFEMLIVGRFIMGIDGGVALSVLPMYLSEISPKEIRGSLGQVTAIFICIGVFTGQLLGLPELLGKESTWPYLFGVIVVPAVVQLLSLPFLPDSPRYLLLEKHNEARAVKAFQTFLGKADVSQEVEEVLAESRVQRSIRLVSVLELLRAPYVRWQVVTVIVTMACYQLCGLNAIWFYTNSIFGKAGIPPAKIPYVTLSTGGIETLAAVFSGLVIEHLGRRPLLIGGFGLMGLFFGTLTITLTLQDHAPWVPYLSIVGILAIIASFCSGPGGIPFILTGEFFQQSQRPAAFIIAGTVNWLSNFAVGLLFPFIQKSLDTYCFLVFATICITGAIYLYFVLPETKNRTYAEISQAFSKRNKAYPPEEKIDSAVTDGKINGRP

[5] = Acute toxicity in Kunming female mouse assessed as effect on body weight changes at 1000 mg/kg, IG measured for 7 days; format: organism-based; conditions: in vivo, po, 168 h, time 7 day
[6] = Acute toxicity in Kunming female mouse assessed as anorexia at 1000 mg/kg, IG; format: organism-based; conditions: in vivo, po
[7] = Acute toxicity in Kunming male mouse assessed as survival rate at 1000 mg/kg, IG; format: organism-based; conditions: in vivo, po, read-out: Activity
[8] = Acute toxicity in Kunming female mouse assessed as lethargy at 1000 mg/kg, IG; format: organism-based; conditions: in vivo, po
[9] = Acute toxicity in Kunming female mouse assessed as survival rate at 1000 mg/kg, IG; format: organism-based; conditions: in vivo, po, read-out: Activity
[10] = Acute toxicity in Kunming female mouse assessed as clonic convulsion at 1000 mg/kg, IG; format: organism-based; conditions: in vivo, po
[11] = Acute toxicity in Kunming female mouse assessed as ruffled fur at 1000 mg/kg, IG; format: organism-based; conditions: in vivo, po
[12] = target: T3, Solute carrier family 2, facilitated glucose transporter member 9 (Homo sapiens) (UniProt Q9NRM0); test: Inhibition of GLUT9 (unknown origin) transfected in HEK293 cells assessed as inhibition of uric acid-induced current at 100 uM by whole cell patch clamp analysis; format: cell-based
T3 sequence (whole entry): T2 sequence (Q9NRM0 whole entry)

| SMILES | Activity (Mus musculus [1]) | Activity (Mus musculus [2]) | IC50 [3] | further results |
| --- | --- | --- | --- | --- |
| O=C(CSc1nc2sccc2c(=O)n1-c1ccc(C2CC2)c2ccccc12)NS(=O)(=O)c1cc(F)cc(F)c1 | 512.33 µM | 54.17% | 7.68 µM |  |
| CC(C)S(=O)(=O)NC(=O)CSc1nc2sccc2c(=O)n1-c1ccc(C2CC2)c2ccccc12 |  |  | 9.25 µM |  |
| CC(Sc1ccncc1C(=O)N1CCc2ccccc2C1)C(=O)O (configuration not stated) | 479.67 µM | 52.9% |  |  |
| O=C(CSc1nc2sccc2c(=O)n1-c1ccc(C2CC2)c2ccccc12)NS(=O)(=O)c1ccc([N+](=O)[O-])cc1 |  |  | 9.72 µM |  |
| O=C(CSc1nc2sccc2c(=O)n1-c1ccc(C2CC2)c2ccccc12)NS(=O)(=O)c1ccc(F)cc1 |  |  | 11.4 µM |  |
| O=C(CSc1nc2sccc2c(=O)n1-c1ccc(C2CC2)c2ccccc12)NS(=O)(=O)C1CC1 |  |  | 11.6 µM |  |
| CS(=O)(=O)NC(=O)CSc1nc2sccc2c(=O)n1-c1ccc(C2CC2)c2ccccc12 | 533.67 µM | 51.85% | 7.31 µM |  |
| O=C(CSc1nc2sccc2c(=O)n1-c1ccc(C2CC2)c2ccccc12)NS(=O)(=O)c1ccccc1 |  |  | 11.4 µM |  |
| O=C(O)CSc1nc2sccc2c(=O)n1-c1ccc(C2CC2)c2ccccc12 |  |  |  | IC50 ([3]; hek293): 3.27 µM |
| O=C(c1cnccc1SC1(C(=O)O)CCC1)N1CCc2ccccc2C1 | 621.33 µM | 36% |  |  |
| O=C(CSc1nc2sccc2c(=O)n1-c1ccc(C2CC2)c2ccccc12)NS(=O)(=O)c1ccc(C(F)(F)F)cc1 |  |  | 16.2 µM |  |
| O=C(CSc1nc2sccc2c(=O)n1-c1ccc(C2CC2)c2ccccc12)NS(=O)(=O)c1ccccc1[N+](=O)[O-] |  |  | 9.79 µM |  |
| O=C(CSc1nc2sccc2c(=O)n1-c1ccc(C2CC2)c2ccccc12)NS(=O)(=O)c1ccc(Br)cc1 | 336.67 µM | 73.29% | 7.56 µM | IC50 [4]: 56 µM; Activity [5]: Non-Toxic; Activity [6]: Non-Toxic; survival [7]: 100%; Activity [8]: Non-Toxic; survival [9]: 100%; Activity [10]: Non-Toxic; Activity [11]: Non-Toxic |
| O=C(O)CSc1nnc(Br)n1-c1ccc(C2CC2)c2ccccc12 | 763 µM | 26% |  | survival [7]: 40%; survival [9]: 20%; inhibition [12]: inactive |
| O=C(CSc1nc2sccc2c(=O)n1-c1ccc(C2CC2)c2ccccc12)NS(=O)(=O)c1ccc(Cl)cc1 |  |  | 11.9 µM |  |
| O=C(CSc1nc2sccc2c(=O)n1-c1ccc(C2CC2)c2ccccc12)NS(=O)(=O)c1cccc([N+](=O)[O-])c1 |  |  | 11.5 µM |  |
| CC(C)(C)c1ccc(S(=O)(=O)NC(=O)CSc2nc3sccc3c(=O)n2-c2ccc(C3CC3)c3ccccc23)cc1 |  |  | 13.5 µM |  |
| O=C(O)CSc1ccncc1C(=O)N1CCc2ccccc2C1 | 682.25 µM | 28.73% |  |  |
| CCS(=O)(=O)NC(=O)CSc1nc2sccc2c(=O)n1-c1ccc(C2CC2)c2ccccc12 | 675.67 µM | 36.39% | 7.9 µM |  |
| O=C(O)CSc1ccncc1C(=O)N1CCOc2ccccc21 | 802.33 µM | 14.4% |  |  |
| O=C(CSc1nc2sccc2c(=O)n1-c1ccc(C2CC2)c2ccccc12)NS(=O)(=O)c1ccc(O)cc1 |  |  | 20.3 µM |  |
| O=C(CSc1nc2sccc2c(=O)n1-c1ccc(C2CC2)c2ccccc12)NS(=O)(=O)c1ccc(Cl)s1 |  |  | 9.7 µM |  |
| O=C(CSc1nc2sccc2c(=O)n1-c1ccc(C2CC2)c2ccccc12)NS(=O)(=O)c1ccc(F)cc1F |  |  | 9.92 µM |  |
| CC(Sc1ccncc1C(=O)N1CCOc2ccccc21)C(=O)O (configuration not stated) | 580 µM | 40.93% |  |  |
| O=C(O)CCSc1ccncc1C(=O)N1CCOc2ccccc21 | 719.33 µM | 24.3% |  |  |
| CC(C)(C)S(=O)(=O)NC(=O)CSc1nc2sccc2c(=O)n1-c1ccc(C2CC2)c2ccccc12 |  |  | 11.1 µM |  |

— ChEMBL document CHEMBL5247582 (Eur J Med Chem, 2022)
